Biological target: T1, AlkBGT alkane monooxygenase complex (Ectopseudomonas oleovorans, UniProt P12691)
T1 construct: gene alkB; inner membrane AlkB with rubredoxin AlkG and reductase AlkT; expressed in E. coli from pGEc41; with Rubredoxin-2; Rubredoxin-NAD(+) reductase
T1 sequence (P12691 1-401): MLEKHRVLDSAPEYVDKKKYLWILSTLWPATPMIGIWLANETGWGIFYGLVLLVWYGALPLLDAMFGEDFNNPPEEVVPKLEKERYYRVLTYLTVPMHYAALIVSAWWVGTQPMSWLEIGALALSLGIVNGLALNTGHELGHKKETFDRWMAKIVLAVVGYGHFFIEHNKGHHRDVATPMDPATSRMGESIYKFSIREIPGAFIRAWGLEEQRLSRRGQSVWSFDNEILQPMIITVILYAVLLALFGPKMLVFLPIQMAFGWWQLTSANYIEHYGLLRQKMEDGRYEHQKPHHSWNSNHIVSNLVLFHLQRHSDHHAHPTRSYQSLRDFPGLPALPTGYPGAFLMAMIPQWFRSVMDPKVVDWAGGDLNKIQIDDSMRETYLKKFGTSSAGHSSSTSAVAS
Test: whole-cell oxidation, GC-FID of products
Assay type: cell-based
Conditions: 30 % (v/v) octane, 37 °C, E. coli with pGEc41

CCCCCCCCO [1-octanol]
whole-cell oxidation, GC-FID of products: The synthesis of 1-octanol and 1-octanal is attributed to AlkB
